From ChEMBL document CHEMBL1201862, “PubChem BioAssay data set” (2004)
Calls of active or inactive are those of the source.

Tests used:
[1] = biological target: Polyadenylate-binding protein 1 (Homo sapiens, UniProt P11940); test: PABP inhibition in translation initiation, SAR follow-up (AID 435018); format: functional
[2] = biological target: Eukaryotic translation initiation factor 4H (Homo sapiens, UniProt Q15056); test: inhibitors of translation initiation factor eIF4H – SAR follow-up (AID 435011); format: functional
[3] = biological target: T1, Mannose-6-phosphate isomerase (Homo sapiens, UniProt P34949); test: MPI enzyme activity inhibition – biochemical, fluorescence intensity, coupled assay, primary screen (AID 1209)
T1 sequence (P34949 whole entry): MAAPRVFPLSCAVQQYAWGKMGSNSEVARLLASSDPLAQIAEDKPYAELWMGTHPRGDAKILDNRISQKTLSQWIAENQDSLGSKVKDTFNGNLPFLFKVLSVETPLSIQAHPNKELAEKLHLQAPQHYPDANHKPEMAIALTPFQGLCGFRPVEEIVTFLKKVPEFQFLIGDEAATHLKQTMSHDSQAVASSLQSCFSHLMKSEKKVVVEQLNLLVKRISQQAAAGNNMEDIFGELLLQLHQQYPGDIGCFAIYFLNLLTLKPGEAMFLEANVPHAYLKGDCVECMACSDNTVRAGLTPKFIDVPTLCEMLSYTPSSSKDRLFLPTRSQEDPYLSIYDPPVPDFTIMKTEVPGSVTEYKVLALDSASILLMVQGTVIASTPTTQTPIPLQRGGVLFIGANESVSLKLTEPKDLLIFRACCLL

[4] = NIH-3T3 fibroblast cytotoxicity, dose response, cytotoxicity control, cell-based, fluorescence, Alamar Blue, secondary assay (AID 2327); format: functional;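 further: NIH-3T3 mouse fibroblasts cultured with fluconazole at 8 µg/mL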
Beta-galactosidase = Beta-galactosidase (Escherichia coli, UniProt Q8VNN2); test: detection-enzyme interference by beta-gal modulators – biochemical, E. coli enzyme, set 3, artefact control for CCR6 antagonist project, dose response (AID 504712); format: functional
Sequence of Beta-galactosidase (Q8VNN2 whole entry): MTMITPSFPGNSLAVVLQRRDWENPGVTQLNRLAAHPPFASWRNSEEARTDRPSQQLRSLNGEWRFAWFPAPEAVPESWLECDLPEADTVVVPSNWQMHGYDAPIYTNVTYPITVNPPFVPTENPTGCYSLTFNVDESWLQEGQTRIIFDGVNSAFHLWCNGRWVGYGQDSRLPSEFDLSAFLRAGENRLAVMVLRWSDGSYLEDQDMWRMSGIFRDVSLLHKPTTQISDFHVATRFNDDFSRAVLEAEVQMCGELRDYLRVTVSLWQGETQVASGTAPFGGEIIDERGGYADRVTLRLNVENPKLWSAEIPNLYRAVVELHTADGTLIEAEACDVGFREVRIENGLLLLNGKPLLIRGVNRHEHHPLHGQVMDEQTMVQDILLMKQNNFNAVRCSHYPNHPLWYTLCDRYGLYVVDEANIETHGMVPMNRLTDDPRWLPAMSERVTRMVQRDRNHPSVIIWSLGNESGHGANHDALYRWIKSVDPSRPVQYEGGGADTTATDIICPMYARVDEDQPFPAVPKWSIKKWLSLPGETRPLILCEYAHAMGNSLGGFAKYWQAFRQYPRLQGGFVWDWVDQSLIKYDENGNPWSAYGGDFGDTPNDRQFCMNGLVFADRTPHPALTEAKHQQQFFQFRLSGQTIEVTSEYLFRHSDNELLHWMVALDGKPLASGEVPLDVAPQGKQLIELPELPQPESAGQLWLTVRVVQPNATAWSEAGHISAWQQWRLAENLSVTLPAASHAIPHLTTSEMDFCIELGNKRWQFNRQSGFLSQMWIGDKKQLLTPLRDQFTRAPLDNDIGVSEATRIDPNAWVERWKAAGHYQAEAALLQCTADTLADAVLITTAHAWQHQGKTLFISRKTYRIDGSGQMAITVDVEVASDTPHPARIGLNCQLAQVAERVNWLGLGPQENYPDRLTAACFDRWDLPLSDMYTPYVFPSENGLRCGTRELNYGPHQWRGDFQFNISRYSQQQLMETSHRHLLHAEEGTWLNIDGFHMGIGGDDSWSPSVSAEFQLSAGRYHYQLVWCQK

[5] = fluconazole-exposed Candida albicans growth modulators – fluorescence, retest, confirmation (AID 2467); format: functional, cell-based
Nonstructural protein 1 = Nonstructural protein 1 (Influenza A virus, UniProt Q194T2); format: functional, Influenza A virus (A/California/07/2009(H1N1))
[6] = biological target: T1, Mannose-6-phosphate isomerase; test: MPI inhibition at elevated mannose 6-phosphate – biochemical, fluorescence intensity, high mannose 6-phosphate, primary screen (AID 1220)
Trypsin = Trypsin (Sus scrofa, UniProt P00761); test: trypsin protease activity blockade – biochemical, quenched peptide fluorescence, cherry-pick, selectivity assay for Rce1 protease inhibitor project, dose response (AID 488789)
Sequence of Trypsin (P00761 whole entry): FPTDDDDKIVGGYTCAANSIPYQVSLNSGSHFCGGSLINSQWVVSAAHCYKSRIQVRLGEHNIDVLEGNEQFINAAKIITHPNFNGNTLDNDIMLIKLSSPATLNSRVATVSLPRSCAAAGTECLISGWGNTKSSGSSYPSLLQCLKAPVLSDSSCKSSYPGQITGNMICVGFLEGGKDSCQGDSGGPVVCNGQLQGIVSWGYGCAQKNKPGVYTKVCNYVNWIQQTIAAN

cells [7] = format: functional, cell-based
cells [8] = format: functional, cell-based; remark: listed apart in the source
[9] = biological target: T2, Corticotropin-releasing factor receptor 2/Corticotropin-releasing factor-binding protein (Homo sapiens, UniProt P24387+Q13324); test: activators of CRF receptor 2 with binding protein – uHTS hits, confirmation (AID 602473); format: functional; settings: read-out: EC50_Mean
T2 sequence (Q13324 whole entry): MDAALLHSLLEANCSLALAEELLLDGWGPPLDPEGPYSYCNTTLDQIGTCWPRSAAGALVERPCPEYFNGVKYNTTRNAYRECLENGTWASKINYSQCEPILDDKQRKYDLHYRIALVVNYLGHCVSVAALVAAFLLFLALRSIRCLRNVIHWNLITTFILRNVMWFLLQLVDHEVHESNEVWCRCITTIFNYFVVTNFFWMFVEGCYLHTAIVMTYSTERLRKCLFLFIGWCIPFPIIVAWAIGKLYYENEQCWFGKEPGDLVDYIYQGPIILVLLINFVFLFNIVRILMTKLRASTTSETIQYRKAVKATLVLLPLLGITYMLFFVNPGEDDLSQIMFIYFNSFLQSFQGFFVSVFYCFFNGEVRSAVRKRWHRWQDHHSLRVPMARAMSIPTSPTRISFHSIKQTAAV
T2 sequence (P24387 whole entry): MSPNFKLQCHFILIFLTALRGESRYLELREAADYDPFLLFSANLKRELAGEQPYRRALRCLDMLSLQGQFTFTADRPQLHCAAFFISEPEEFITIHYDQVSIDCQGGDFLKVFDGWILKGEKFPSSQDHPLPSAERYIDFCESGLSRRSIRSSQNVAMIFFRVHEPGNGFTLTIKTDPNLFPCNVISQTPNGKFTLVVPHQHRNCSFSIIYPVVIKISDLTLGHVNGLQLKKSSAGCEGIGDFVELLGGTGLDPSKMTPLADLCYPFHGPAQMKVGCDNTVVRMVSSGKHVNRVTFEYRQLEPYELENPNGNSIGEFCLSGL

[10] = HEK-293T viability loss after treatment – luminescence, T-cell screen hits, cytotoxicity control for TCR NF-kB inhibitor project, dose response (AID 489026); format: functional, cell-based;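 further: cells exposed to compound about 14 hours before the viability readout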
ORF 73 = ORF 73 (Human herpesvirus 8, UniProt O40947); test: KSHV LANA DNA-binding disruption – biochemical, fluorescence polarization, cherry-picked samples, dose response (AID 504725); set-up: species or system Human gammaherpesvirus 8;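 further: fluorescence polarization of a labeled DNA duplex reporting LANA DNA binding; potency is for inhibitors that block LANA binding to the DNA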
Sequence of ORF 73 (O40947 whole entry): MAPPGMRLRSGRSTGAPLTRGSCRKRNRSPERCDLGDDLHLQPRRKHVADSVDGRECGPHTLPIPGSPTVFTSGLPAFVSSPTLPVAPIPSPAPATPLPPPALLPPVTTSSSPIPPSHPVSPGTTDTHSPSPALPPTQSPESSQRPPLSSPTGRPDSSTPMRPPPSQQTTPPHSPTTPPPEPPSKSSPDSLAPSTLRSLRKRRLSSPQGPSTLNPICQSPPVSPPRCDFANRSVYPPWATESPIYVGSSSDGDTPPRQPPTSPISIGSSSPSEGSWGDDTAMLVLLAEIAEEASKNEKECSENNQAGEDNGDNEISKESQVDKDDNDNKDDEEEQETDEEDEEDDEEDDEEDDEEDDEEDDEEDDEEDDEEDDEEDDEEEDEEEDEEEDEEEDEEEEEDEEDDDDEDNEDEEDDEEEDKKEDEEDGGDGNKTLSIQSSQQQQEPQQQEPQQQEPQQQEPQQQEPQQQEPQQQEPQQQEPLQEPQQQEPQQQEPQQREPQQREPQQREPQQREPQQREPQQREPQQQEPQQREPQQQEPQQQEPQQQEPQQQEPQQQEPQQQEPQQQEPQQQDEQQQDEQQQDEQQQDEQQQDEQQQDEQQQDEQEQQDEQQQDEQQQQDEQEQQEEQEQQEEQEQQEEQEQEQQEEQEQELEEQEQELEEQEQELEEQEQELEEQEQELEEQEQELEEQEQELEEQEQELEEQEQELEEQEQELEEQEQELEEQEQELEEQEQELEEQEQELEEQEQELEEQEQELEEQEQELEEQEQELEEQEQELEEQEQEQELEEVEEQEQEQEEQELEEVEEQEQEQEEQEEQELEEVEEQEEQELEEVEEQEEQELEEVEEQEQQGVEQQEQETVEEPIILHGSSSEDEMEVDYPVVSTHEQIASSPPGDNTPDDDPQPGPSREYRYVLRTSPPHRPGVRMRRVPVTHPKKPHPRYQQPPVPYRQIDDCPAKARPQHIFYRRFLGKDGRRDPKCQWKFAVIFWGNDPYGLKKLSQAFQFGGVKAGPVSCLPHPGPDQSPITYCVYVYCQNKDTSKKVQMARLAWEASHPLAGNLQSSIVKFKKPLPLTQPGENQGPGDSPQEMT

Wee1-like protein kinase = Wee1-like protein kinase (Homo sapiens, UniProt P30291); test: HeLa cell cycle G2/M accumulation – FACS, mechanism study for Wee1 degradation inhibitor project, late-stage follow-up, panel member Wee1 Degradation (AID 2088)
[11] = biological target: G2/mitotic-specific cyclin-B1 (Homo sapiens, UniProt P14635); test: HeLa cell cycle G2/M accumulation – FACS, mechanism study for Wee1 degradation inhibitor project, late-stage follow-up, panel member Cyclin B Degradation (AID 2088)
Sequence of G2/mitotic-specific cyclin-B1 (P14635 whole entry): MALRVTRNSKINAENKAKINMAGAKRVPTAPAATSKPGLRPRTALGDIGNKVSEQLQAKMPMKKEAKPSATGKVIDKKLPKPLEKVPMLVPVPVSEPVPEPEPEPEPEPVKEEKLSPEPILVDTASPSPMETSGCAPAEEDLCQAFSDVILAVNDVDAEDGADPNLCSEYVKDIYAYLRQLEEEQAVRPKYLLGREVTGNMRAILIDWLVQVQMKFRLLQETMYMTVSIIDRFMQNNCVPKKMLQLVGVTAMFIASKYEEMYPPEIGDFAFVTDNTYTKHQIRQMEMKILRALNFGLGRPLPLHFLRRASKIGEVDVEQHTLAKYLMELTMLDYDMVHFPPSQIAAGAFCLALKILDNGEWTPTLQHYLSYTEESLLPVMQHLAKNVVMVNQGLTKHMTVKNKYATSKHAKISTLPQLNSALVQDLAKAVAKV

HeLa = test: ATP-based viability loss in HeLa cells – cell-based, CellTiter-Glo luminescence, cherry-pick samples, cytotoxicity control for MITF activator project, dose response (AID 540259); format: functional; settings: Homo sapiens
[12] = Cytotoxicity screening for potential Inhibitors of Bacterial Capsule Biogenesis. [Related pubchem assays (depositor defined):AID488970]; format: functional
Saccharomyces cerevisiae = test: S. cerevisiae Caspase-1/ASC signal blockers IC50, NALP1 inhibitor project selectivity test (AID 488863); format: functional, organism-based
BJ [13] = test: BJ-TERT-LT-ST fibroblast viability loss – cell-based, RAS-independent, luminescence, dose response (AID 1935); format: functional; settings: Homo sapiens;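 further: BJ fibroblasts immortalized with TERT plus LT and ST oncogenes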
BJ [14] = test: BJ-TERT fibroblast viability loss – cell-based, RAS-independent, luminescence, dose response (AID 1933); format: functional; settings: Homo sapiens
[15] = DRD fibroblast viability loss – cell-based, non-viral oncogenic, luminescence, dose response (AID 1934); format: functional; settings: Homo sapiens
[16] = biological target: NACHT, LRR and PYD domains-containing protein 1 (Homo sapiens, UniProt Q9C000); test: NALP1 inhibitors in yeast, dose response, luminescent (AID 488860); format: functional
BJ [17] = test: cells; format: functional, cell-based; settings: Homo sapiens
Vero = test: viability of Vero cells under compound – cytotoxicity control for flavivirus capping enzyme inhibitors (AID 588742); format: functional; settings: Chlorocebus sabaeus
Genome polyprotein = Genome polyprotein (dengue virus type 2, UniProt P29990); test: flavivirus cap methylation enzyme inhibition – biochemical, confirmation dose response, primary screen (AID 588689); format: functional
[18] = biological target: T3, Low molecular weight phosphotyrosine protein phosphatase (Homo sapiens, UniProt P24666); format: functional; settings: read-out: IC50_Mean
T3 sequence (P24666 whole entry): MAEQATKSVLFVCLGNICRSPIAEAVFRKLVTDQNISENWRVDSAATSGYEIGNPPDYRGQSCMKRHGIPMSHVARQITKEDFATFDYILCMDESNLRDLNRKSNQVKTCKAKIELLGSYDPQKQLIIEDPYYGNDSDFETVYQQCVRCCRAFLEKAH

[19] = biological target: T3, Low molecular weight phosphotyrosine protein phosphatase; format: functional; settings: read-out: IC50_Mean; remark: listed apart in the source
[20] = biological target: Envelope glycoprotein gp160 (Human immunodeficiency virus 1, UniProt Q6QLK5); test: cell-free HIV fusion peptide-binding blockers – biochemical, uHTS, fluorescence dequenching, […] (AID 1986)
Sequence of Envelope glycoprotein gp160 (Q6QLK5 whole entry, the tested form may be a part): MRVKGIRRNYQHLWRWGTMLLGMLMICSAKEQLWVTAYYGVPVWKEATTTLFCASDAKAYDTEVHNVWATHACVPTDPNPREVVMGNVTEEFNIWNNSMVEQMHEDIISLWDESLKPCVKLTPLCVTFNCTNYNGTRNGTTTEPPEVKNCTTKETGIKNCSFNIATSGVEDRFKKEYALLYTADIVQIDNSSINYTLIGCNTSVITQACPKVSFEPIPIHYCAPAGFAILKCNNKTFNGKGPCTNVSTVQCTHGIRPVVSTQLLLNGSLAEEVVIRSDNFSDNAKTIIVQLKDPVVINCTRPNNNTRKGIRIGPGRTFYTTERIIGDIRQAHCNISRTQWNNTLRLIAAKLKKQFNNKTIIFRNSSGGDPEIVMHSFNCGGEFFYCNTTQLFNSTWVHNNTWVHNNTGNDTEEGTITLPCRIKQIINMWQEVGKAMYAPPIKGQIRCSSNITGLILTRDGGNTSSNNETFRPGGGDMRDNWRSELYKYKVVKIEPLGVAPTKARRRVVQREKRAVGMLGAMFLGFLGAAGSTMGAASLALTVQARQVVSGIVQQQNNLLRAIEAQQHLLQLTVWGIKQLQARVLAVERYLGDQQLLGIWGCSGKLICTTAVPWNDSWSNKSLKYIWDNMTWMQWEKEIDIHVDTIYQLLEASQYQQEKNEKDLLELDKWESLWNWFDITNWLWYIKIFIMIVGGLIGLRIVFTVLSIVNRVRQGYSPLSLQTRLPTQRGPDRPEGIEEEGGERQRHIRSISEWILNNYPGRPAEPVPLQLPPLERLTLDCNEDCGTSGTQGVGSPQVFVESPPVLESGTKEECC

[21] = biological target: T4, Carboxy-terminal domain RNA polymerase II polypeptide A small phosphatase 1 (Homo sapiens, UniProt Q9GZU7); test: CTDSP1 inhibitors, concentration-response, biochemical, absorbance readout, ultra-high-throughput screen actives (AID 540297); format: functional
T4 sequence (Q9GZU7 whole entry): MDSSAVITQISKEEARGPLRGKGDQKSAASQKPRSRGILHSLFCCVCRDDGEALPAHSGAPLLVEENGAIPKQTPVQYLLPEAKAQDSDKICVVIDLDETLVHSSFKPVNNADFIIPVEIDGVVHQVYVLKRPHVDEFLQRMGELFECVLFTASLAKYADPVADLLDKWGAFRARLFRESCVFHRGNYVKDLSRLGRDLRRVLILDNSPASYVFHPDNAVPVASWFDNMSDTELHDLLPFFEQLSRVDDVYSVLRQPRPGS

[22] = biological target: T5, Tyrosine-protein phosphatase non-receptor type 22 (Homo sapiens, UniProt Q9Y2R2); test: PTPN22 enzyme inhibitors – biochemical, fluorescence, LYP catalytic domain, selectivity assay for LMPTP inhibitor project, dose response (AID 652006); format: functional; settings: read-out: IC50_Mean
T5 sequence (Q9Y2R2 whole entry): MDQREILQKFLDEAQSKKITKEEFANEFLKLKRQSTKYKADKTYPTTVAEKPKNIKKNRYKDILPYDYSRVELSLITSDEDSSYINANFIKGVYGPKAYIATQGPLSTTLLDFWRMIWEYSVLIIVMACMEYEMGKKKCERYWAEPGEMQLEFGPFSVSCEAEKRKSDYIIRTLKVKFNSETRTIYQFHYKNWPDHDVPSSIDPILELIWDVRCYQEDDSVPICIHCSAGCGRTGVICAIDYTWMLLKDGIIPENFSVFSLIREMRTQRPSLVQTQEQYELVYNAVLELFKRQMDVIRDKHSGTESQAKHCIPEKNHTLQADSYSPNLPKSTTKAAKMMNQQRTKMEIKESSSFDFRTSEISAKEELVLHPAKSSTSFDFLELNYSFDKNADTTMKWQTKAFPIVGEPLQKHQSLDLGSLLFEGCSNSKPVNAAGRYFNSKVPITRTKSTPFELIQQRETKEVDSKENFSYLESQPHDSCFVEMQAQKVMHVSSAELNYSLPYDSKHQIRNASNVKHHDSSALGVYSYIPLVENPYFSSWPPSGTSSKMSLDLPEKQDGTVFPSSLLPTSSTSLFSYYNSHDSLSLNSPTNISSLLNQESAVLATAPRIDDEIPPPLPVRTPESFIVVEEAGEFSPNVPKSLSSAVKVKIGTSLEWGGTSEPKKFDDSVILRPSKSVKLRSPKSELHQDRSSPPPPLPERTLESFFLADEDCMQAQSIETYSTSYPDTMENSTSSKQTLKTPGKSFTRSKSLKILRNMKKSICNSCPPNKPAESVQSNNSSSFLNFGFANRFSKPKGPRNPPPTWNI

[23] = biological target: T6, Heat shock factor protein 1 (Mus musculus, UniProt P38532); test: decrease of HSF1-responsive luciferase luminescence – cell-based, NIH3T3, dose retest, confirmation (AID 2382); format: functional;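 further: NIH3T3 fibroblasts with HSF1-driven luciferase reporter stressed by proteasome inhibitor MG132; luminescence from HSF1-driven luciferase expression after 8 hours of MG132 stress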
T6 sequence (P38532 whole entry): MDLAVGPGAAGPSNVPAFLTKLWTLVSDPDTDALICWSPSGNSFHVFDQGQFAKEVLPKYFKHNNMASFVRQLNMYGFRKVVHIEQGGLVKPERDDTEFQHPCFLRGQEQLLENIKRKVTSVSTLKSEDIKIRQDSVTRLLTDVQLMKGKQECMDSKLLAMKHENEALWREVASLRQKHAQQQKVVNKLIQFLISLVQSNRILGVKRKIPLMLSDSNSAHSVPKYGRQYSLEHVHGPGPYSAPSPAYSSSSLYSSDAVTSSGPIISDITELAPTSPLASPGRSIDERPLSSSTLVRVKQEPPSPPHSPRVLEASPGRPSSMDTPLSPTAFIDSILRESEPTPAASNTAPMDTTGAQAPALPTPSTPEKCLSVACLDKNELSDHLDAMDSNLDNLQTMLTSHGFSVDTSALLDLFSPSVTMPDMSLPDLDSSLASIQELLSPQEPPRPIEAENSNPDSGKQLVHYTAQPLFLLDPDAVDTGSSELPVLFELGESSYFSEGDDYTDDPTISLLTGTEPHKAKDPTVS

[24] = biological target: Scavenger receptor class B member 1 (Mus musculus, UniProt Q61009); test: mouse SR-BI DiI-HDL uptake blockers – ldlA[mSR-BI] cells, fluorescence, cherry pick, dose response (AID 493194); format: functional, cell-based;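 further: cellular uptake of fluorescent DiI-labeled HDL measured as cell fluorescence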
Sequence of Scavenger receptor class B member 1 (Q61009 whole entry): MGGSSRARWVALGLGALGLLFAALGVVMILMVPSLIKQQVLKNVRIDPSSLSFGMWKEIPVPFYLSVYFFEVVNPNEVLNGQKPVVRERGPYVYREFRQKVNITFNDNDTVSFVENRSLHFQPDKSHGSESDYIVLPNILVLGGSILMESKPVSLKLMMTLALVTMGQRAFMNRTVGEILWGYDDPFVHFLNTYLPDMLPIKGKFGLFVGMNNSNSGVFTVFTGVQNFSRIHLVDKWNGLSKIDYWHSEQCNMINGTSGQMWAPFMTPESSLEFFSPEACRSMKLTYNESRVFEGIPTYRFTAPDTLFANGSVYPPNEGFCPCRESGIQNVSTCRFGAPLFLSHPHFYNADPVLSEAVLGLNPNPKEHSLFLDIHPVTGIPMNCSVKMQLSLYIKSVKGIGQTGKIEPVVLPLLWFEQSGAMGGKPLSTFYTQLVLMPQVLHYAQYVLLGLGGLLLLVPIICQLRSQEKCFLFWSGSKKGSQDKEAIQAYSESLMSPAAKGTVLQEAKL

Sequence of Polyadenylate-binding protein 1 (P11940 whole entry): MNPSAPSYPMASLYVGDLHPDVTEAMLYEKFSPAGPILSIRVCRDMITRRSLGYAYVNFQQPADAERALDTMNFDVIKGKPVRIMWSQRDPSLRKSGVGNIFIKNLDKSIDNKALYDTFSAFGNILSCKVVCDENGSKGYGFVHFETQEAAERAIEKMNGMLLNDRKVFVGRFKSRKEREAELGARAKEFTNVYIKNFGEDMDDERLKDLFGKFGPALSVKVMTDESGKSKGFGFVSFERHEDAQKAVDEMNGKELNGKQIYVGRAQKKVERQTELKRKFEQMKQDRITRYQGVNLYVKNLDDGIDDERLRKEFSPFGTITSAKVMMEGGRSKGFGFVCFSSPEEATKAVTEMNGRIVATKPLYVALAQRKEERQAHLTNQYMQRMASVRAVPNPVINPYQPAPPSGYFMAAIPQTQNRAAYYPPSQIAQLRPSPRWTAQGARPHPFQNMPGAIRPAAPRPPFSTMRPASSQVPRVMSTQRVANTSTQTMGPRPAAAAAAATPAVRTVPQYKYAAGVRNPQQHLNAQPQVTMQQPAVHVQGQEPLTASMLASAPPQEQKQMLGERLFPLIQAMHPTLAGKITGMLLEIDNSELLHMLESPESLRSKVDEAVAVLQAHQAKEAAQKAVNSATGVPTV

In the case of `O=C(CSc1ccc(-c2ccco2)nn1)Nc1ccccc1`, the IC50 [1] is reported as > 100 µM (inactive) and the IC50 [2] is reported as 84.4 µM (active).
With `Cc1n[nH]c(=S)n(NC(=O)CC(=O)Nn2c(=S)[nH]nc(C)c2=O)c1=O` the IC50 [3] was > 50 µM (not active), the EC50 [4] was > 150 µM (inactive) and the IC50 (Beta-galactosidase) was > 66.6 µM (inactive). The EC50 [5] was 4.66 µM (active), the IC50 (Nonstructural protein 1) was 6.42 µM (active) and the IC50 [6] was > 50 µM (not active).
In the case of `Cc1ccc(O)c(CNc2cnc3ccccc3c2)c1`, the AC50 (Trypsin) is reported as 12.8 µM (active).
With `O=C(OCCN1C(=O)c2cccc3c(N4CCOCC4)ccc(c23)C1=O)c1ccc(Cl)cc1` the EC50 (cells [7]) was > 350 µM (not active), the EC50 (cells [8]) was > 350 µM (not active) and the EC50 [9] was 5.89 µM (active). For the same molecule, the IC50 [10] was > 80 µM (inactive) and the AC50 (ORF 73) was 29.3 µM (active).
With `Cc1cc(=O)[nH]c(-n2nc(C)cc2NC(=O)CCc2ccccc2)n1` the EC50 (Wee1-like protein kinase) was > 16.6 µM (active) and the EC50 [11] was > 49.7 µM (inactive).
For `CCc1ccc(NC(=O)c2ccc3nc(N)sc3c2)cc1`, the AC50 (HeLa) was 47.4 µM (active) and the CC50 [12] was 54 µM (active).
With `CCN1/C(=C/C=C/C=C/c2sc3ccccc3[n+]2CC)Sc2ccccc21` [DITHIAZANINE IODIDE] the IC50 (Saccharomyces cerevisiae) was > 100 µM (inactive), the EC50 (BJ [13]) was 3 µM (inconclusive) and the EC50 (BJ [14]) was 1.7 µM (inconclusive). The EC50 [15] was 1.68 µM (inconclusive), the IC50 [16] was 19.5 µM (active) and the EC50 (BJ [17]) was 2.04 µM (inconclusive).
With `Cc1c(CCC(=O)O)c(=O)oc2c(C)c3occ(-c4ccc(Cl)cc4)c3cc12` the CC50 (Vero) was > 40 µM (active), the IC50 (Genome polyprotein) was 42.2 µM (active) and the IC50 [18] was 8.61 µM (active). For the same molecule, the IC50 [19] was 19.1 µM (active), the IC50 [20] was 15.1 µM (active) and the IC50 [21] was 4.89 µM (active). For the same molecule, the IC50 [22] was 22.4 µM (inactive).
With `CCOc1ccccc1/C=C/c1onc(C)c1S(=O)(=O)N1CCC(C(=O)NC(C)(C)C)CC1` the EC50 [23] was > 195 µM (not active) and the AC50 [24] was 0.05 µM (active).
